Measured values taken from ChEMBL document CHEMBL1201862, “PubChem BioAssay data set” (2004).
Calls of active or inactive are those of the source.

Experiments:
cells [1] = conditions: A549
[2] = viability loss in HepG2 liver cells – cell-based, ATP luminescence, cherry-pick, set 6, cytotoxicity control, dose response (AID 1053125); assay type: functional
cells [3] = assay: cells
Paired box protein Pax-8 = Paired box protein Pax-8 (Homo sapiens, UniProt Q06710); assay: PAX8 transcriptional activity inhibition in RMG-I – RMG-I cells, luciferase, cherry-pick, dose response (AID 687027); assay type: functional, cell-based;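 note: luciferase reporter driven by Pax8 target thyroperoxidase promoter measured by SteadyGlo luminescence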
[4] = PAX5 cellular inhibition readout – cell-based, plate reader, dry powder samples, selectivity assay for PAX8 inhibitor project, dose response (AID 743047); assay type: functional;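 note: HEK293 cells carrying a Pax5 driven CD19 promoter luciferase reporter; potency of inhibitors that lower reporter luminescence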
[5] = toxicity toward immortalized ovarian surface epithelium – cell-based, plate reader, dry powder samples, cytotoxicity control for PAX8 inhibitor project, dose response (AID 743045); assay type: functional
[6] = COV362 cell viability loss – plate reader, dry powder, SA12, cytotoxicity control for PAX8 inhibitor project, dose response (AID 743144); assay type: functional, cell-based
[7] = A2780 cell killing – plate reader, dry powder samples, cytotoxicity control, dose response (AID 743046); assay type: functional, cell-based
[8] = OVCAR-3 cell viability loss – plate reader, dry powder samples, PAX8 inhibitor project, dose response (AID 743044); assay type: functional, cell-based
[9] = NIH3T3 cell viability loss – ATP luminescence, mouse fibroblasts, counter-screen, dose response (AID 2010); assay type: functional, cell-based;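 note: cells exposed to compound for about 90 hours before reading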
[10] = OVCAR4 cell viability loss – plate reader, dry powder, SA11, cytotoxicity control for PAX8 inhibitor project, dose response (AID 743150); assay type: functional, cell-based; conditions: OVCAR-4
[11] = Trypanosoma cruzi growth suppression in host cells – NIH3T3 host cells, beta-gal luminescence, confirmation (AID 2044); assay type: functional, cell-based;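 note: intracellular parasites grown in NIH/3T3 mouse fibroblasts as host cells; luminescent beta-galactosidase reporter signal from transgenic T. cruzi replicating inside host cells; inhibitors lower the luminescence signal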
[12] = COV434 cell viability loss – plate reader, dry powder, SA7, cytotoxicity control for PAX8 inhibitor project, dose response (AID 743145); assay type: functional, cell-based
[13] = inhibitors acting on PAX2 in cells – cell-based, plate reader, dry powder samples, selectivity assay for PAX8 inhibitor project, dose response (AID 743048); assay type: functional;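 note: HEK293 cells carrying a WT1 promoter luciferase reporter driven by expressed Pax2; potency is for inhibition of Pax2 driven reporter signal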
[14] = OV-90 cell viability loss – plate reader, dry powder, SA8, PAX8 inhibitor project, dose response (AID 743149); assay type: functional, cell-based
[15] = PAX8-dependent cell viability loss – plate reader, dry powder, dose response (AID 743049); assay type: functional, cell-based
Kallikrein-7 = Kallikrein-7 (Homo sapiens, UniProt P49862); assay: Fluorescence Intensity-based biochemical primary high throughput dose response assay to identify activators of kallikrein-7 (K7) zymogen.
Cytochrome P450 3A4 = Cytochrome P450 3A4 (Homo sapiens, UniProt P08684);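 note: CYP3A4 tested as one member of a cytochrome P450 panel screen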
Protein Tat = Protein Tat (Human immunodeficiency virus type 1 group M subtype B (isolate HXB2)(HIV-1), UniProt P04608); assay type: functional;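 note: tat binding to TAR RNA read out by fluorescence polarization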
[16] = HIV-1 Vif–A3G interaction blockers – biochemical, TR-FRET, GST-Vif 1-94, biotin-A3G peptide, dose response retest, primary screen (AID 1117319); assay type: functional;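 note: TR-FRET signal of purified GST-Vif binding a biotinylated A3G peptide; inhibitors lower the FRET signal by blocking Vif and A3G binding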
[17] = target: T1, Neuropeptide Y receptor type 2 (Homo sapiens, UniProt P49146); assay type: functional, cell-based;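 note: HEK293 cells expressing the receptor and a CNG channel; stimulus was NPY near EC95 followed by isoproterenol to raise cAMP; antagonist potency measured as restoring cAMP signal that NPY suppresses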
T1 sequence (P49146 whole entry): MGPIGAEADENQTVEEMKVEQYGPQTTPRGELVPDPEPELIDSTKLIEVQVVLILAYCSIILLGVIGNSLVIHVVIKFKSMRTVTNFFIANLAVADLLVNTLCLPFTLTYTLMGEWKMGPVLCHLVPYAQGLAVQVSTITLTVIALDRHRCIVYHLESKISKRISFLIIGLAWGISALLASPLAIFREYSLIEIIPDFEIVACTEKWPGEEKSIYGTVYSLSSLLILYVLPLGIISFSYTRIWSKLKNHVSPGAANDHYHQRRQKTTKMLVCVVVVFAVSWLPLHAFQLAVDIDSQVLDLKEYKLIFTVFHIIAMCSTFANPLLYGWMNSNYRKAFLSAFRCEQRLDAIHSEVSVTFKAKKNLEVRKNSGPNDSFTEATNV

Fatty acid synthase [18] = target: T2, Fatty acid synthase (Homo sapiens, UniProt P49327); assay: inhibition of human FAS-TE enzyme activity – biochemical, kinetic fluorescence intensity, dose response (AID 624326); assay type: functional;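 note: rate of fluorescence rise from hydrolysis of a fluorogenic O-methyl fluorescein ester substrate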
Fatty acid synthase [19] = target: T2, Fatty acid synthase; assay: inhibition of human FAS-TE enzyme activity – biochemical, endpoint fluorescence intensity, uHTS hits, dose response (AID 624327); assay type: functional;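 note: fluorescence from hydrolysis of an O-methyl fluorescein acyl ester substrate by the enzyme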
[20] = target: T3, Neuropeptide Y receptor type 1 (Homo sapiens, UniProt P25929); assay type: functional;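 note: HEK293 cells with a CNG channel challenged with NPY then isoproterenol; potency as antagonist that reverses NPY suppression of cAMP signal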
T3 sequence (P25929 whole entry): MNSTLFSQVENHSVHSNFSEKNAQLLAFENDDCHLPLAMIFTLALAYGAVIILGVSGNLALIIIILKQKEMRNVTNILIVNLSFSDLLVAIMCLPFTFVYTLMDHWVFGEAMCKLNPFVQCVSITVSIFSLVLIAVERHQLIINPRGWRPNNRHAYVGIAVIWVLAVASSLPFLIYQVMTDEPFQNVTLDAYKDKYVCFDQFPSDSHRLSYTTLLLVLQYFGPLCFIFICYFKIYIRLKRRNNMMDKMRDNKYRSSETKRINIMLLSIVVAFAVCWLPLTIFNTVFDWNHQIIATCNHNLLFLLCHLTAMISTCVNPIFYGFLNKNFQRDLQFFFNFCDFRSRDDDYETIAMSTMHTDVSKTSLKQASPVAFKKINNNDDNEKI

Fibrinogen beta chain [21] = target: T4, Fibrinogen beta chain (Homo sapiens, UniProt P02675); assay: Fluorescence polarization-based biochemical high throughput dose response assay to identify inhibitors that disrupt the binding of a cyclic peptide (Tn6) to the fibrin proteolytic product D-Dimer and fragment E complex [DD(E )].
Fibrinogen beta chain [22] = target: T4, Fibrinogen beta chain; assay: Fluorescence polarization-based biochemical high throughput dose response assay to identify inhibitors that disrupt the binding of a cyclic peptide (Tn7) to the fibrin proteolytic product D-Dimer and fragment E complex [DD(E )].
[23] = viability loss in human Jurkat cells – cell-based, luminescence, cytotoxicity control for P. falciparum gametocyte viability project, dose response (AID 1117277); assay type: functional;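 note: potency reflects loss of cellular ATP meaning fewer viable cells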
[24] = viability inhibitors of stage V gametocytes – luminescence, dose response (AID 1117278); assay type: functional, cell-based;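 note: gametocytes exposed to compound for 24 hours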
[25] = target: T5, Serine/threonine-protein phosphatase (Candida dubliniensis (strain CD36 / CBS 7987 / NCPF 3949 / NRRLY-17841) (Yeast), UniProt B9W6M3); assay: blockers of CaCl2-induced CDRE-lacZ signaling – S. cerevisiae, luminescence, secondary, dose response (AID 2388); assay type: functional, cell-based;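 note: yeast reporter cells carrying a calcineurin-responsive lacZ construct stimulated with calcium chloride; luminescent beta-galactosidase reporter signal in whole cells rather than isolated phosphatase activity; potency for inhibition where a drop in reporter signal means calcineurin blockade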
T5 sequence (B9W6M3 whole entry): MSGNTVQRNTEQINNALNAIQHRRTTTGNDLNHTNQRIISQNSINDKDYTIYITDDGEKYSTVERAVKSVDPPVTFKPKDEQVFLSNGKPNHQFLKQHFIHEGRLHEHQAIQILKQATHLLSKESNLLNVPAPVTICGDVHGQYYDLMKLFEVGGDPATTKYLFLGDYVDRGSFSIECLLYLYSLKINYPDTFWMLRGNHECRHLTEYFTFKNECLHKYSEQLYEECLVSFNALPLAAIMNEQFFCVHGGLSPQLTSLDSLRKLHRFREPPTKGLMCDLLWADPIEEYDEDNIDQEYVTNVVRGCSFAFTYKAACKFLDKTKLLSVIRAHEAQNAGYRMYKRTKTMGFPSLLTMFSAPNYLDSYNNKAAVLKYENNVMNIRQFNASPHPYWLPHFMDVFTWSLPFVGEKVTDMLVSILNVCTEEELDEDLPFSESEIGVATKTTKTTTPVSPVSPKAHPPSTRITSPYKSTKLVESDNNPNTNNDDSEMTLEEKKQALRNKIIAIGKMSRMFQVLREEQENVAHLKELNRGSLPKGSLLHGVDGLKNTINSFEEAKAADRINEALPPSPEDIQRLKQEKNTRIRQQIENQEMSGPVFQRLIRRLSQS

[26] = target: ATP-dependent molecular chaperone HSP82 (Candida albicans (strain WO-1) (Yeast), UniProt C4YTQ8); assay: steroid-induced GRE reporter decrease in yeast – S. cerevisiae, luminescence, Hsp90 inhibitor project, dose response (AID 2400); assay type: functional, cell-based;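 note: beta-galactosidase luminescence from glucocorticoid response element reporter as proxy for Hsp90 function; inhibitor potency where signal loss means Hsp90 inhibition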
[27] = target: Disintegrin and metalloproteinase domain-containing protein 17 (Homo sapiens, UniProt P78536); assay: inhibition of ADAM17 substrate cleavage – biochemical, quenched FRET substrate, counter-screen for ADAM10 exosite inhibitor project, dose response (AID 743253)
[28] = fluconazole-exposed Candida albicans growth modulators – fluorescence, retest, confirmation (AID 2467); assay type: functional, cell-based
[29] = NIH-3T3 fibroblast cytotoxicity, dose response, cytotoxicity control, cell-based, fluorescence, Alamar Blue, secondary assay (AID 2327); assay type: functional;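 note: NIH-3T3 mouse fibroblasts cultured with fluconazole at 8 µg/mL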
[30] = potency of ADAM10 substrate cleavage blockers – biochemical, QFRET, dose response (AID 743254);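 note: ADAM10 enzyme with the DM2 quenched FRET peptide as substrate; EDANS fluorescence gain as the protease cuts the substrate; inhibitor potency against ADAM10 proteolytic activity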
[31] = HepG2 viability loss by ATP level – cell-based, CellTiter-Glo luminescence, cherry-pick, set 4, cytotoxicity control, dose response (AID 743480); assay type: functional
[32] = ATP-based viability loss in HEK293T cells – cell-based, CellTiter-Glo luminescence, cherry-picked samples, set 4, cytotoxicity control, dose response (AID 743441); assay type: functional; conditions: HEK293

T2 sequence (P49327 whole entry): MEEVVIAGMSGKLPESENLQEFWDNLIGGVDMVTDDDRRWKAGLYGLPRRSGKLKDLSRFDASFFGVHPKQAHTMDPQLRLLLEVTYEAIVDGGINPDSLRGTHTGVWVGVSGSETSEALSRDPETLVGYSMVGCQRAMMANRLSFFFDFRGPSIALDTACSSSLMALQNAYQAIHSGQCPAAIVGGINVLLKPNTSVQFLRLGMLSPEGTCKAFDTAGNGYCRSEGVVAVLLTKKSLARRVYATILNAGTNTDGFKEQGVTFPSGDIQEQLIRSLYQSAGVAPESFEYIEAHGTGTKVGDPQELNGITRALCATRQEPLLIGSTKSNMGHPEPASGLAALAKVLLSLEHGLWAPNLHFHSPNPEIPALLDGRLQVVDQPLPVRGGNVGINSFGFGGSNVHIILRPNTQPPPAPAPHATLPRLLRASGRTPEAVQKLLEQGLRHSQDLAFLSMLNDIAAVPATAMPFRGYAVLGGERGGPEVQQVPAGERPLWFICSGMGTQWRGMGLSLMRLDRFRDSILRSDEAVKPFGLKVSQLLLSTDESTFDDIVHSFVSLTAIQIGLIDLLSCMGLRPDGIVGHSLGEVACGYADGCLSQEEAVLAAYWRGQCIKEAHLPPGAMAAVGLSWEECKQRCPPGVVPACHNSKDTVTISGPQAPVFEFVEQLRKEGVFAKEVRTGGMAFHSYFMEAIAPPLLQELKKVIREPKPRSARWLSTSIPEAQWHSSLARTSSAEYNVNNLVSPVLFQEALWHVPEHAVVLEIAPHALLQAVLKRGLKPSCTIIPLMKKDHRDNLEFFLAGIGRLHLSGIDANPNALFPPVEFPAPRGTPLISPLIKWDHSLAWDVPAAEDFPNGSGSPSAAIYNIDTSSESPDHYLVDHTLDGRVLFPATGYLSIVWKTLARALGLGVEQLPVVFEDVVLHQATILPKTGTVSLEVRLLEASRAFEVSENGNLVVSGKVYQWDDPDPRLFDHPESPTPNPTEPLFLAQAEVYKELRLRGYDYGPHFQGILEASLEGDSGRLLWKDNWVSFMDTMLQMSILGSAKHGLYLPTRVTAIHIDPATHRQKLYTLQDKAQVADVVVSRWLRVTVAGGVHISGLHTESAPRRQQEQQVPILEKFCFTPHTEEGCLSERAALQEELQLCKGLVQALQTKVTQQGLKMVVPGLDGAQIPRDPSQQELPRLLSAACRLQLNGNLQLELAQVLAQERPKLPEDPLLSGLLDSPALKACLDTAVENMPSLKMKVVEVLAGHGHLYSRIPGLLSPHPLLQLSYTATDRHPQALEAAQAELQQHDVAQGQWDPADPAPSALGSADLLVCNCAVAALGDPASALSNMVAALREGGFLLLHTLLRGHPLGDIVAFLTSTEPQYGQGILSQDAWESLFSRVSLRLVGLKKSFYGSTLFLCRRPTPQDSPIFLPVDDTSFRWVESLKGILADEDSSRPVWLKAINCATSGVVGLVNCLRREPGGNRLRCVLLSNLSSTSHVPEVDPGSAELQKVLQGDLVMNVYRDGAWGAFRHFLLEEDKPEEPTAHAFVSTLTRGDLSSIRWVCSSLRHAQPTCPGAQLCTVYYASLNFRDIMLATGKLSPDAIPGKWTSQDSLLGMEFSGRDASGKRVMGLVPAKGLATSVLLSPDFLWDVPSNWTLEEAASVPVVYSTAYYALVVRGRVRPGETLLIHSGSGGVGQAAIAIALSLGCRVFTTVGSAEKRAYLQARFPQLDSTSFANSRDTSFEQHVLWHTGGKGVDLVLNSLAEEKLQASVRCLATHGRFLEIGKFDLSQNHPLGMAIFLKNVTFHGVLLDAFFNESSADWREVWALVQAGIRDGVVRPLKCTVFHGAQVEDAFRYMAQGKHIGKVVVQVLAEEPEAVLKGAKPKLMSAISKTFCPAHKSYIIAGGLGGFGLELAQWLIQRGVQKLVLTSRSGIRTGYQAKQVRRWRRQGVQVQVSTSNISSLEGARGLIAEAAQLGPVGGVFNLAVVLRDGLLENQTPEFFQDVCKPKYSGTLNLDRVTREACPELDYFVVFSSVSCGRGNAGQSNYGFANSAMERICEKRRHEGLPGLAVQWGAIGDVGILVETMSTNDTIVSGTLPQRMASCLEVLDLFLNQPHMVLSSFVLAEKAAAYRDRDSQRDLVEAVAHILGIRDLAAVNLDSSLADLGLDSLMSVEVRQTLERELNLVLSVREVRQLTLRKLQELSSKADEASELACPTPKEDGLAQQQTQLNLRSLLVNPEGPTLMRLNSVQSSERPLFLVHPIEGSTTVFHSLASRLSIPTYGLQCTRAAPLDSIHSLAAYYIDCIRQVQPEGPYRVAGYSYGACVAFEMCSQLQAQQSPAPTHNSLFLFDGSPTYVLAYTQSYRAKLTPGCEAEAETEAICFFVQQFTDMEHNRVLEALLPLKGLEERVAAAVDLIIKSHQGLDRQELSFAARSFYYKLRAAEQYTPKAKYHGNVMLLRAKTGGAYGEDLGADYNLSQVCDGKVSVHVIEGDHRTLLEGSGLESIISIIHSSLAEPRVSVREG
T4 sequence (P02675 whole entry, the tested form may be a part): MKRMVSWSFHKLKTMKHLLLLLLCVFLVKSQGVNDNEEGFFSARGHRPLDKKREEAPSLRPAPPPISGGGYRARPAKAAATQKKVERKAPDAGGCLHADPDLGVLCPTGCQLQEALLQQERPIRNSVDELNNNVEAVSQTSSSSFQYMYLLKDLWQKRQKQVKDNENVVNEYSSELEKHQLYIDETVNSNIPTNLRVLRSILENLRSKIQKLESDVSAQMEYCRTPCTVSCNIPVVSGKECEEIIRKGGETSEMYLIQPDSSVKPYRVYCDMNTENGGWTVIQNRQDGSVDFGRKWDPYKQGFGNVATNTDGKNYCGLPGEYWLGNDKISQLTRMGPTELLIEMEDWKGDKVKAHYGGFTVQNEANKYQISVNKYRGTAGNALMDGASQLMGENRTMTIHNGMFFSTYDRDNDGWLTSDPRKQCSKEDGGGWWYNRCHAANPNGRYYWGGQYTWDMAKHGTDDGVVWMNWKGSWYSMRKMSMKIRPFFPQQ
Sequence of Disintegrin and metalloproteinase domain-containing protein 17 (P78536 whole entry, the tested form may be a part): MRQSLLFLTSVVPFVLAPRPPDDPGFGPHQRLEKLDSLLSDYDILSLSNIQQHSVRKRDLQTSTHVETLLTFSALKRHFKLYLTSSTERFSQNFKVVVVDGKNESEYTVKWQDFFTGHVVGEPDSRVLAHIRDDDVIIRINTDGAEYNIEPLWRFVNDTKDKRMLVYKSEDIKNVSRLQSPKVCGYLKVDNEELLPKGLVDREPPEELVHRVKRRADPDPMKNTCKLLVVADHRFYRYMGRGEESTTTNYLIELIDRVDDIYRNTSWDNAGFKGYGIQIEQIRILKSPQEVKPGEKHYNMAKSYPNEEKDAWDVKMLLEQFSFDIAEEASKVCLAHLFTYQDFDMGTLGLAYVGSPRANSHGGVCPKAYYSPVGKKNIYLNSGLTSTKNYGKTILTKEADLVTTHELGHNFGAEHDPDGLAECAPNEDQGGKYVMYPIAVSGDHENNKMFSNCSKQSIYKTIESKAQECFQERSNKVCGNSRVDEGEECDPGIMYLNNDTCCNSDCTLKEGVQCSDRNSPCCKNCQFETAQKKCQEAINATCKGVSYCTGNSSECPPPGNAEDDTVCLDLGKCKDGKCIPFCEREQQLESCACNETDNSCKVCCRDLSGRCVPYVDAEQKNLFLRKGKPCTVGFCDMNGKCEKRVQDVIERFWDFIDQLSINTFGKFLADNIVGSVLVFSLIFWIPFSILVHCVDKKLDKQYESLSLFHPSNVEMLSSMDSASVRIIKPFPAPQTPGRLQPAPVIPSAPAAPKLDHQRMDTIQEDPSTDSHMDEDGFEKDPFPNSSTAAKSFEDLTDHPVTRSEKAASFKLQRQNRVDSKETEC
Sequence of Protein Tat (P04608 whole entry): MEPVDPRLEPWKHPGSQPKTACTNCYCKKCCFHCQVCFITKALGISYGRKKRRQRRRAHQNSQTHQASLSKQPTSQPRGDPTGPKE
Sequence of ATP-dependent molecular chaperone HSP82 (C4YTQ8 whole entry, the tested form may be a part): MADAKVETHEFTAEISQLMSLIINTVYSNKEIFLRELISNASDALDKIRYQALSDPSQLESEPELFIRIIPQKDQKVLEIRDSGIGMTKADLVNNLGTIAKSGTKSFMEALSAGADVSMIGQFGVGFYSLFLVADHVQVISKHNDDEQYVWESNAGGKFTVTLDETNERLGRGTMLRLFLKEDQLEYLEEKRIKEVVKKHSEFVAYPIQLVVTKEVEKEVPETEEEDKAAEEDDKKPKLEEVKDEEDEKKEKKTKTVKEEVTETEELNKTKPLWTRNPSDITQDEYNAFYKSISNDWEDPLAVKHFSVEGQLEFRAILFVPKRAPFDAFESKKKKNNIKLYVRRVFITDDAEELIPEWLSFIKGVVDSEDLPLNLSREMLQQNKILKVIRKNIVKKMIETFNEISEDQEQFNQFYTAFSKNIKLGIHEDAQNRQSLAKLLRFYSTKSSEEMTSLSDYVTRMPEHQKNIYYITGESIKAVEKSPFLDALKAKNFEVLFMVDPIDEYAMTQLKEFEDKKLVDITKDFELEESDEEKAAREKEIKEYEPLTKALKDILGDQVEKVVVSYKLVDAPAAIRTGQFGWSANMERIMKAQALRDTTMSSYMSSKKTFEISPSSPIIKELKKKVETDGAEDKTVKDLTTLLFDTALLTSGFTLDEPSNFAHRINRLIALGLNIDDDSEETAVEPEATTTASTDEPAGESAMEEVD
Sequence of Kallikrein-7 (P49862 whole entry): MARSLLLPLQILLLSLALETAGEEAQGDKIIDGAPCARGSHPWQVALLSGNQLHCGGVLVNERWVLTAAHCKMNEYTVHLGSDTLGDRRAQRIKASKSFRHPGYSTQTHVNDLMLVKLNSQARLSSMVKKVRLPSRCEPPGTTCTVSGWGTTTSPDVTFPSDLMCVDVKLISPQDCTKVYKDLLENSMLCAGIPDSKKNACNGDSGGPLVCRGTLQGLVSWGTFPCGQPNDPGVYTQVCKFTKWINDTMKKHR

## CC1CCCCN1Cc1c(O)ccc2c(=O)c(-c3nc4ccccc4s3)coc12 (stereo unspecified)
Cells [1]
  AC50: 44.8 µM (active)
[2]
  AC50: 40.4 µM (active)
Cells [3]
  AC50: 47 µM (active)

## COc1ccc2c(c1)C(C)=CC(C)(C)N2S(=O)(=O)c1ccc(Br)cc1
Paired box protein Pax-8
  AC50: 7.63 µM (active)
[4]
  AC50: 75.6 µM (active)
[5]
  AC50: 8.49 µM (active)
[6]
  AC50: 15.3 µM (active)
[7]
  AC50: 12 µM (active)
[8]
  AC50: 8.79 µM (active)
[9]
  EC50: 1.05 µM (active)
[10]
  AC50: 5.89 µM (active)
[11]
  EC50: 2.06 µM (active)
[12]
  AC50: 4.64 µM (active)
[13]
  AC50: 63 µM (active)
[14]
  AC50: 5.9 µM (active)
[15]
  AC50: 16 µM (active)

## CCN(CC)Cc1c(O)ccc2c(=O)c(Oc3ccccc3OC)coc12
Kallikrein-7
  EC50: 13.1 µM (inactive)
Cytochrome P450 3A4
  AC50: 25.1 µM (inconclusive)

## CCOC(=O)c1cc(NC(=O)N2CCCc3ccccc32)c(C)nc1C
Protein Tat
  IC50: > 100 µM (active)
[16]
  IC50: > 100 µM (active)

## O=C(Nc1ccc(Cl)cc1)c1csc(-c2ccccc2)n1
[17]
  IC50: 10.1 µM (not active)
Fatty acid synthase [18]
  IC50: 13.5 µM (active)
Fatty acid synthase [19]
  IC50: 12.3 µM (active)
[20]
  IC50: 6.94 µM (active)
Fibrinogen beta chain [21]
  IC50: > 83.3 µM (inactive)
Fibrinogen beta chain [22]
  IC50: > 83.3 µM (inactive)

## COCCNC(=O)c1ccc2c(c1)CCN2S(C)(=O)=O
[23]
  IC50: > 83.3 µM (inactive)
[24]
  IC50: > 109 µM (inactive)

## Cc1cc(C)c(-c2cc(NC(=O)COC(=O)c3ccc(C#N)cc3)n(-c3ccccc3)n2)cc1C
[25]
  EC50: > 180 µM (inactive)
[26]
  EC50: > 160 µM (inactive)
[27]
  IC50: > 69.5 µM (inactive)
[28]
  EC50: 0.092 µM (active)
[29]
  EC50: > 150 µM (inactive)
[30]
  IC50: > 69.5 µM (inactive)

## CCn1c(S)nnc1-c1cc(-c2ccc(OC(C)C)cc2)nc2ccccc12
[31]
  AC50: > 52 µM (inactive)
[32]
  AC50: > 52 µM (inactive)
